The source of these data is patent publication US11840517B2, “Lappaconitine derivative with analgesic activity, and preparation and application thereof” (priority 2021, dated 2023).

The first assay has as its system Kunming mice. Kind of assay: Analgesic activity by acetic acid-induced writhing method. Format: in vivo. The following applies: Mus musculus, sc; Dosing concentration 3.5 mg/kg, subcutaneous, 15 min before i.p. 0.7% acetic acid; writhing inhibition vs blank group; read-out: Analgesia rate ± SEM (%). As for the experimental part: The experimental animals were Kunming mice (male:female=1:1), weighed 22±2 g, which were provided by Chengdu dossy experimental animals Co., ltd., China. The mice were kept in the animal room of the School of Life Science and Engineering, Southwest Jiaotong University, where the animal room was set at a temperature of 23±2° C., a humidity of 55±5% and a photoperiod of 16:8 h (L:D). Before the experiment, the mice were freely fed for 2-3 days with water and feed to adapt to the new environment. Then, the mice were treated by water fasting for 12 h. 10 animals were allocated to each group to ensure that there are at least 6 sets of valid data in each group. The animal experiments were carried out in strict accordance with the national regulations on the management of experimental animals.
The compounds prepared in the examples provided herein and the positive control lappaconitine were all dissolved with 0.1 mol/L HCl according to the amount of the substance ratio of 1:1, and then diluted with physiological saline to a concentration to be determined. The samples to be tested were the compounds prepared the examples provided herein; the positive control was lappaconitine; and the blank control was physiological saline containing 0.1 mol/L HCl.
The animals in the control groups were subjected to the same treatment as those in the experimental group except that the samples to be test were replaced with physiological saline.
10 mice were randomly selected, male:female=1:1, were placed in independent cages. Each mouse was injected subcutaneously with the sample solution mentioned above at a dose of 0.1 mL/10 g body weight. After 15 min, a 0.7% acetic acid solution was intraperitoneally injected. The number of writhing reactions in each mouse within 15 minutes was recorded. The group that the mice were injected with physiological saline subcutaneously was the blank group; the group that the mice were injected with the sample to be tested was the experimental group; and the group that the mice were injected with lappaconitine was the positive group. The analgesic activity was represented by a percentage of the reduced number of writhing compared to the blank group (writhing inhibition rate), which were specifically as follows: writhing inhibition rate (analgesic activity)=(average number of writhing times in the blank group-average number of writhing times in the experimental group)/average number of writhing times in the blank group×100%.
(In writhing tests, fewer writhes than in controls are read as antinociception.)
On to `CCN1C[C@]2(OC(=O)c3ccccc3NS(=O)(=O)c3cccc(OC)c3)CC[C@H](OC)[C@@]34C2CC([C@@H]13)[C@@]1(O)C[C@H](OC)[C@H]2CC4[C@]1(O)[C@H]2OC` (stereo partly shown) [Compound 13], for which the inhibition in vivo at 3.5 mg/kg turned out to be 37.1 ± 15.7%. As to `CCN1C[C@]2(OC(=O)c3ccccc3NS(=O)(=O)c3ccc(C)cc3)CC[C@H](OC)[C@@]34C2CC([C@@H]13)[C@@]1(O)C[C@H](OC)[C@H]2CC4[C@]1(O)[C@H]2OC` (stereo partly shown) [Compound 15], the inhibition in vivo at 3.5 mg/kg amounted to 27.7 ± 12.9%. Same read-out and setting: the same measure for `CCN1C[C@]2(OC(=O)c3ccccc3NS(=O)(=O)c3ccc(OC)cc3)CC[C@H](OC)[C@@]34C2CC([C@@H]13)[C@@]1(O)C[C@H](OC)[C@H]2CC4[C@]1(O)[C@H]2OC` (stereo partly shown) [Compound 20]: 16.8 ± 6.09%. As for `CCN1C[C@]2(OC(=O)c3ccccc3NS(=O)(=O)c3ccc(F)cc3)CC[C@H](OC)C34C2CC([C@@H]13)[C@@]1(O)C[C@H](OC)[C@H]2CC4[C@]1(O)[C@H]2OC` (stereo partly shown) [Compound 23], the inhibition in vivo at 3.5 mg/kg worked out at 14.7 ± 13.2%.

Still in this assay, the particulars now being: Mus musculus, sc; Dosing concentration 5 mg/kg, subcutaneous, 15 min before i.p. 0.7% acetic acid; writhing inhibition vs blank group; read-out: Analgesia rate ± SEM (%).
In the case of `CCN1C[C@]2(OC(=O)c3ccccc3NC(=O)C3CC3)CC[C@H](OC)C3C2C[C@@H]([C@@H]1C)[C@@]1(O)CC(OC)[C@H]2CC3[C@]1(O)[C@H]2OC` (stereo partly shown) [Compound 39], the inhibition in vivo at 5 mg/kg amounted to 33.5 ± 7.27%.

Staying with this assay, now noted: Mus musculus, sc; Dosing concentration 10 mg/kg, subcutaneous, 15 min before i.p. 0.7% acetic acid; writhing inhibition vs blank group; read-out: Analgesia rate ± SEM (%).
On to `CCN1C[C@]2(OC(=O)c3ccccc3NS(=O)(=O)c3ccccc3F)CC[C@H](OC)[C@@]34C2CC([C@@H]13)[C@@]1(O)C[C@H](OC)[C@H]2CC4[C@]1(O)[C@H]2OC` (stereo partly shown) [Compound 6], for which the inhibition in vivo at 10 mg/kg is 60.3 ± 5.94%. With `CCN1C[C@]2(OC(=O)c3ccccc3NS(=O)(=O)c3cccc(F)c3)CC[C@H](OC)[C@@]34C2CC([C@@H]13)[C@@]1(O)C[C@H](OC)[C@H]2CC4[C@]1(O)[C@H]2OC` (stereo partly shown) [Compound 7], the inhibition in vivo at 10 mg/kg came out at 50.2 ± 6.85%. Take `CCN1C[C@]2(OC(=O)c3ccccc3NS(=O)(=O)c3cccc4ccccc34)CC[C@H](OC)[C@@]34C2CC([C@@H]13)[C@@]1(O)C[C@H](OC)[C@H]2CC4[C@]1(O)[C@H]2OC` (stereo partly shown) [Compound 8]: the inhibition in vivo at 10 mg/kg stood at 49.2 ± 5%.

For the compound `CCN1C[C@]2(OC(=O)c3ccccc3NS(=O)(=O)Cc3ccccc3)CC[C@H](OC)[C@@]34C2CC([C@@H]13)[C@@]1(O)C[C@H](OC)[C@H]2CC4[C@]1(O)[C@H]2OC` (stereo partly shown) [Compound 9], the inhibition in vivo at 10 mg/kg was found to be 43.8 ± 4.5%. As to `CCN1C[C@]2(OC(=O)c3ccccc3NS(=O)(=O)c3cccc4c(N(C)C)cccc34)CC[C@H](OC)[C@@]34C2CC([C@@H]13)[C@@]1(O)C[C@H](OC)[C@H]2CC4[C@]1(O)[C@H]2OC` (stereo partly shown) [Compound 10], the inhibition in vivo at 10 mg/kg stood at 42.5 ± 2.56%. On the same count and under the same terms, the same measure for `CCN1C[C@]2(OC(=O)c3ccccc3NS(=O)(=O)Cc3ccc([N+](=O)[O-])cc3)CC[C@H](OC)[C@@]34C2CC([C@@H]13)[C@@]1(O)C[C@H](OC)[C@H]2CC4[C@]1(O)[C@H]2OC` (stereo partly shown) [Compound 11]: 42.4 ± 5.98%; for `CCN1C[C@]2(OC(=O)c3ccccc3NS(=O)(=O)c3cccc4cccnc34)CC[C@H](OC)[C@@]34C2CC([C@@H]13)[C@@]1(O)C[C@H](OC)[C@H]2CC4[C@]1(O)[C@H]2OC` (stereo partly shown) [Compound 12]: 41.9 ± 3.8%. Turning to `CCN1C[C@]2(OC(=O)c3ccccc3NC(=O)OC(C)C)CC[C@H](OC)[C@@]34C2CC([C@@H]13)[C@@]1(O)C[C@H](OC)[C@H]2CC4[C@]1(O)[C@H]2OC` (stereo partly shown) [Compound 14], the inhibition in vivo at 10 mg/kg came to 28.4 ± 4.98%.

For `C/C=C/S(=O)(=O)Nc1ccccc1C(=O)O[C@@]12CC[C@H](OC)[C@@]34C1CC([C@H]3N(CC)C2)[C@@]1(O)C[C@H](OC)[C@H]2CC4[C@]1(O)[C@H]2OC` (stereo partly shown) [Compound 16], the inhibition in vivo at 10 mg/kg was 24.4 ± 8.46%.

With `CCN1C[C@]2(OC(=O)c3ccccc3NS(C)(=O)=O)CC[C@H](OC)[C@@]34C2CC([C@@H]13)[C@@]1(O)C[C@H](OC)[C@H]2CC4[C@]1(O)[C@H]2OC` (stereo partly shown) [Compound 17], the inhibition in vivo at 10 mg/kg stood at 22.8 ± 7.58%. The same measure, in the same setting: the same measure for `CCN1C[C@]2(OC(=O)c3ccccc3NC(=O)NC)CC[C@H](OC)[C@@]34C2CC([C@@H]13)[C@@]1(O)C[C@H](OC)[C@H]2CC4[C@]1(O)[C@H]2OC` (stereo partly shown) [Compound 18]: 20 ± 6.67%; for `CCN1C[C@]2(OC(=O)c3ccccc3NS(=O)(=O)c3ccc(C(F)(F)F)cc3)CC[C@H](OC)[C@@]34C2CC([C@@H]13)[C@@]1(O)C[C@H](OC)[C@H]2CC4[C@]1(O)[C@H]2OC` (stereo partly shown) [Compound 19]: 19.4 ± 5%; for `CCOC(=O)Nc1ccccc1C(=O)O[C@@]12CC[C@H](OC)C34C1CC([C@H]3N(CC)C2)[C@@]1(O)C[C@H](OC)[C@H]2CC4[C@]1(O)[C@H]2OC` (stereo partly shown) [Compound 21]: 16.4 ± 11.5%.

`CCN1C[C@]2(OC(=O)c3ccccc3NS(=O)(=O)c3ccc(-c4ccccc4)cc3)CC[C@H](OC)C34C2CC([C@@H]13)[C@@]1(O)C[C@H](OC)[C@H]2CC4[C@]1(O)[C@H]2OC` (stereo partly shown) [Compound 22]: the inhibition in vivo at 10 mg/kg was found to be 16.1 ± 10.6%. Same read-out and setting: the same measure for `C=CCOC(=O)Nc1ccccc1C(=O)O[C@@]12CC[C@H](OC)C34C1CC([C@H]3N(CC)C2)[C@@]1(O)C[C@H](OC)[C@H]2CC4[C@]1(O)[C@H]2OC` (stereo partly shown) [Compound 24]: 13.3 ± 9%; for `CCN1C[C@]2(OC(=O)c3ccccc3NS(=O)(=O)c3ccc(Cl)cc3)CC[C@H](OC)C34C2CC([C@@H]13)[C@@]1(O)C[C@H](OC)[C@H]2CC4[C@]1(O)[C@H]2OC` (stereo partly shown) [Compound 25]: 11.7 ± 7.78%; for `CCN1C[C@]2(OC(=O)c3ccccc3NS(=O)(=O)c3ccc(Br)cc3)CC[C@H](OC)C34C2CC([C@@H]13)[C@@]1(O)C[C@H](OC)[C@H]2CC4[C@]1(O)[C@H]2OC` (stereo partly shown) [Compound 26]: 11.4 ± 7.58%. Take `CCN1C[C@]2(OC(=O)c3ccccc3NS(=O)(=O)CC)CC[C@H](OC)C34C2CC([C@@H]13)[C@@]1(O)C[C@H](OC)[C@H]2CC4[C@]1(O)[C@H]2OC` (stereo partly shown) [Compound 27]: the inhibition in vivo at 10 mg/kg came to 4.02 ± 9.5%.

For `CCN1C[C@]2(OC(=O)c3ccccc3NS(=O)(=O)Oc3ccccc3)CC[C@H](OC)C34C2CC([C@@H]13)[C@@]1(O)C[C@H](OC)[C@H]2CC4[C@]1(O)[C@H]2OC` (stereo partly shown) [Compound 28], the inhibition in vivo at 10 mg/kg is 1.03 ± 10.3%.

On to `CCN1C[C@]2(OC(=O)c3ccccc3NS(=O)(=O)c3cccs3)CC[C@H](OC)C34C2CC([C@@H]13)[C@@]1(O)C[C@H](OC)[C@H]2CC4[C@]1(O)[C@H]2OC` (stereo partly shown) [Compound 29], for which the inhibition in vivo at 10 mg/kg was determined as 1.03 ± 5.37%. Same read-out and setting: the same measure for `CCN1C[C@]2(OC(=O)c3ccccc3NC(=O)C3CCCC3)CC[C@H](OC)C34C2CC([C@@H]13)[C@@]1(O)C[C@H](OC)[C@H]2CC4[C@]1(O)[C@H]2OC` (stereo partly shown) [Compound 33]: 56.9 ± 3.82%; for `CCCCCCC(=O)Nc1ccccc1C(=O)O[C@@]12CC[C@H](OC)C34C1CC([C@H]3N(CC)C2)[C@@]1(O)C[C@H](OC)[C@H]2CC4[C@]1(O)[C@H]2OC` (stereo partly shown) [Compound 34]: 54.2 ± 6.15%; for `CCCOc1ccc(C(=O)Nc2ccccc2C(=O)O[C@@]23CC[C@H](OC)C45C2CC([C@H]4N(CC)C3)[C@@]2(O)C[C@H](OC)[C@H]3CC5[C@]2(O)[C@H]3OC)cc1` (stereo partly shown) [Compound 35]: 48.4 ± 6.08%. Turning to `CCN1C[C@]2(OC(=O)c3ccccc3NC(=O)c3ccc(C(=O)OC)cc3)CC[C@H](OC)C3C2C[C@@H]([C@@H]1C)[C@@]1(O)CC(OC)[C@H]2CC3[C@]1(O)[C@H]2OC` (stereo partly shown) [Compound 36], the inhibition in vivo at 10 mg/kg was determined as 36.4 ± 9.54%.

Take `CCN1C[C@]2(OC(=O)c3ccccc3NC(=O)C3CCCCC3)CC[C@H](OC)C3C2C[C@@H]([C@@H]1C)[C@@]1(O)CC(OC)[C@H]2CC3[C@]1(O)[C@H]2OC` (stereo partly shown) [Compound 37]: the inhibition in vivo at 10 mg/kg stood at 34.5 ± 4.68%. Same read-out and setting: the same measure for `CCN1C[C@]2(OC(=O)c3ccccc3NC(=O)C3CCOC3)CC[C@H](OC)C3C2C[C@@H]([C@@H]1C)[C@@]1(O)CC(OC)[C@H]2CC3[C@]1(O)[C@H]2OC` (stereo partly shown) [Compound 38]: 34 ± 8.92%; for `CCN1C[C@]2(OC(=O)c3ccccc3NC(=O)c3ccc(Cl)cc3)CC[C@H](OC)C3C2C[C@@H]([C@@H]1C)[C@@]1(O)CC(OC)[C@H]2CC3[C@]1(O)[C@H]2OC` (stereo partly shown) [Compound 40]: 31.6 ± 12.6%. The same measure, in the same setting: the same measure for `CCN1C[C@]2(OC(=O)c3ccccc3NC(=O)c3cnc(Cl)cn3)CC[C@H](OC)C3C2C[C@@H]([C@@H]1C)[C@@]1(O)CC(OC)[C@H]2CC3[C@]1(O)[C@H]2OC` (stereo partly shown) [Compound 41]: 31.5 ± 8.19%; for `CCCC(C)C(=O)Nc1ccccc1C(=O)O[C@@]12CC[C@H](OC)C3C1C[C@@H]([C@H](C)N(CC)C2)[C@@]1(O)CC(OC)[C@H]2CC3[C@]1(O)[C@H]2OC` (stereo partly shown) [Compound 42]: 31.3 ± 10.7%.
